Measured values taken from patent publication US11767305B2, “Advantageous benzofuran compositions for mental disorders or enhancement” (Tactogen Inc, priority 2020, dated 2023).

Legend:
5-HT2A receptors = 5-HT2A receptors (Homo sapiens (Human), UniProt P28223); assay: 5-HT2A agonist and antagonist calcium assay (Calcium NWPLUS, FLIPR); type: cell-based
Experimental: The DiscoveRx Calcium NWPLUS Assay was used for detection of changes in intracellular calcium as signalled by an increase of dye fluorescence in cells expressing 5-HT2A receptors. Signal was measured on a fluorescent plate reader equipped with fluidic handling capable of detecting rapid changes in fluorescence upon compound stimulation.
To conduct the assay, cell lines were expanded from freezer stocks according to standard procedures. Cells (10,000 cells/well) were seeded in a total volume of 50 μL (200 cells/μL) into black-walled, clear-bottom, Poly-D-lysine coated 384-well microplates and incubated at 37-C for the appropriate time prior to testing. DMSO concentration for all readouts was ≤0.2%.
Assays were performed in 1×DyeLoading Buffer consisting of 1×Dye (DiscoverX, Calcium No WashPLUS kit, Catalog No. 90-0091), 1×Additive A and 2.5 mM Probenecid in HBSS/20 mM Hepes. Probenecid was prepared fresh. Cells were loaded with dye prior to testing. Media was aspirated from cells and replaced with 25 μL Dye Loading Buffer. Test compounds were assayed at 10 concentrations with the highest concentration either 30 or 10 μM and subsequent concentrations using a 0.33 dilution factor. Cells with testing sample were incubated for 45 minutes at 37° C. and then 20 minutes at room temperature. After dye loading, cells were removed from the incubator and 25 μL of 2×compound in HBSS/20 mM Hepes was added using a FLIPR Tetra (MDS). […]
Compound agonist activity was measured on a FLIPR Tetra. Calcium mobilization was monitored for 2 minutes with a 5 second baseline read. FLIPR read-Area under the curve was calculated for the two minute read. Compound activity was analyzed using CBIS data analysis suite (ChemInnovation, CA). Percentage activity was calculated as 100%×(mean RFU of test sample−mean RFU of vehicle control)/(mean MAX RFU control ligand −mean RFU of vehicle control). For antagonist mode assays, percentage inhibition was calculated as 100%×(1−(mean RFU of test sample−mean RFU of vehicle control)/(mean RFU of EC80 control−mean RFU of vehicle control)).

MAO-A = MAO-A (Homo sapiens (Human), UniProt P21397); assay: MAO-A inhibition assay (kynuramine); type: biochemical
Sequence of MAO-A (P21397 whole entry, looked up, species assumed): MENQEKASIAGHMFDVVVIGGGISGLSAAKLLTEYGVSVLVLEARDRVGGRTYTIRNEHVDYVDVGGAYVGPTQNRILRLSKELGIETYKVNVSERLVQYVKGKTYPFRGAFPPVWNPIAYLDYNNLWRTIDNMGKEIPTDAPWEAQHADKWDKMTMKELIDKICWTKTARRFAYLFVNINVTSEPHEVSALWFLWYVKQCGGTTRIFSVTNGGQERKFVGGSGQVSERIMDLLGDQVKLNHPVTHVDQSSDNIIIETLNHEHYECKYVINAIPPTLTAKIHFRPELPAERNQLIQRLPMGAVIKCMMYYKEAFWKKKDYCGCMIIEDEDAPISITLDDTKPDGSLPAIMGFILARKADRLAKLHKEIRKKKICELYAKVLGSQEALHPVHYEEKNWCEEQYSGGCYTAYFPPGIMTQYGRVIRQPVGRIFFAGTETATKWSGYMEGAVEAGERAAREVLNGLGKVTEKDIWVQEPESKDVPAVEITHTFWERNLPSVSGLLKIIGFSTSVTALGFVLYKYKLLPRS
Experimental: MAO-A and test compounds were preincubated at 37° C. for 15 minutes before substrate addition. Test compounds were assayed at 10 concentrations with the highest concentration either 30 or 10 μM and subsequent concentrations using a 0.33 dilution factor. The reaction was initiated by addition of kynuramine and incubated at 37° C. for 30 minutes. The reaction was terminated by addition of NaOH. The amount of 4-hydroquioline formed was determined through spectrofluorimetric readout with the emission detection at 380 nm and excitation wavelength 310 nm.

5-HT1BR = 5-HT1BR (Homo sapiens (Human), UniProt P28222); assay: 5-HT1BR cAMP secondary messenger agonist assay (HitHunter, CHO-K1); type: cell-based
Text: The 5-HT1BR cAMP secondary messenger agonist assay used a panel of CHO-K1 cell lines stably expressing non-tagged GPCRs that endogenously signal through cAMP. Hit Hunter® cAMP assays monitored the activation of a GPCR via Gi and Gs secondary messenger signaling in a homogenous, non-imaging assay format using DiscoverX Enzyme Fragment Complementation (EFC) with β-galactosidase as the functional endpoint.
The enzyme was split into two complementary portions: Enzyme Acceptor (EA) and Enzyme Donor (ED). Exogenously introduced ED fused to cAMP (ED-cAMP) competed with endogenously generated cAMP for binding to an anti-cAMP-specific antibody. Active β-galactosidase was formed by complementation of exogenous EA to any unbound ED-cAMP.
Cell lines were expanded from freezer stocks according to standard procedures. Cells were seeded in a total volume of 20 μL into white walled, 384-well microplates and incubated at 37° C. for the appropriate time prior to testing. cAMP modulation was determined using the DiscoverX HitHunter cAMP XS+ assay.
For agonist determination, cells were incubated with sample (in the presence of EC80 forskolin to induce response if measuring Gi secondary messenger signaling). Media was aspirated from cells and replaced with 15 μL 2:1 HBSS/10 mM Hepes:cAMP XS+ Ab reagent. Intermediate dilution of sample stocks was performed to generate 4×sample in assay buffer (optionally containing 4×EC80 forskolin). 5 μL of 4×sample was added to cells and incubated at 37° C. or room temperature for 30 or 60 minutes, as appropriate. Final assay vehicle concentration was 1%.

5-HT2B = 5-HT2B (Homo sapiens (Human), UniProt P41595); assay: 5-HT2B agonist and antagonist calcium assay (Calcium NWPLUS, FLIPR); type: cell-based
Sequence of 5-HT2B (P41595 whole entry, looked up, species assumed): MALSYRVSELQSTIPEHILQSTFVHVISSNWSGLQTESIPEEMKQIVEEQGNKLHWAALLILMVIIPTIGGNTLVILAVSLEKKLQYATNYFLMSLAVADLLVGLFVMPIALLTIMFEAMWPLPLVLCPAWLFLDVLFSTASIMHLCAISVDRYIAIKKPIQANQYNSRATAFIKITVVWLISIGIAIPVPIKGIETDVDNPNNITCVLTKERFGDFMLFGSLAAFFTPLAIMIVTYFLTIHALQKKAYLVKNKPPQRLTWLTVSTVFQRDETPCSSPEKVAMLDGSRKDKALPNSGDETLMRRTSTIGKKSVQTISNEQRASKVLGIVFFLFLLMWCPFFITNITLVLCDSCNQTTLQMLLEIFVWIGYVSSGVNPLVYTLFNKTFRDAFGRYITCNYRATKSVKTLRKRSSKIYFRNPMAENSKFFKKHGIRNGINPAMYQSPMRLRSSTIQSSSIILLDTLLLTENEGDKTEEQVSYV

[1] = molecular target: T1, serotonin (5-HT) transporter (SERT) (Rattus norvegicus (Rat), UniProt P31652); assay: Rat synaptosome SERT [3H]5-HT release assay; details: [3H]5-HT release via SERT EC50 (nM), 5 nM [3H]5-HT
[2] = molecular target: T1, serotonin (5-HT) transporter (SERT); assay: Rat synaptosome SERT [3H]5-HT uptake inhibition assay; details: Inhibition of [3H]5-HT Uptake at SERT IC50 (nM), 5 nM [3H]5-HT
[3] = molecular target: Nicotinic Acetylcholine Receptor α4β2 (nAchRa4/b2) (Homo sapiens (Human), UniProt P17787+P43681); assay: Nicotinic acetylcholine receptor α4β2 ion channel blocking assay; type: cell-based
Sequence of Nicotinic Acetylcholine Receptor α4β2 (nAchRa4/b2) (P43681 29-627 limits assumed): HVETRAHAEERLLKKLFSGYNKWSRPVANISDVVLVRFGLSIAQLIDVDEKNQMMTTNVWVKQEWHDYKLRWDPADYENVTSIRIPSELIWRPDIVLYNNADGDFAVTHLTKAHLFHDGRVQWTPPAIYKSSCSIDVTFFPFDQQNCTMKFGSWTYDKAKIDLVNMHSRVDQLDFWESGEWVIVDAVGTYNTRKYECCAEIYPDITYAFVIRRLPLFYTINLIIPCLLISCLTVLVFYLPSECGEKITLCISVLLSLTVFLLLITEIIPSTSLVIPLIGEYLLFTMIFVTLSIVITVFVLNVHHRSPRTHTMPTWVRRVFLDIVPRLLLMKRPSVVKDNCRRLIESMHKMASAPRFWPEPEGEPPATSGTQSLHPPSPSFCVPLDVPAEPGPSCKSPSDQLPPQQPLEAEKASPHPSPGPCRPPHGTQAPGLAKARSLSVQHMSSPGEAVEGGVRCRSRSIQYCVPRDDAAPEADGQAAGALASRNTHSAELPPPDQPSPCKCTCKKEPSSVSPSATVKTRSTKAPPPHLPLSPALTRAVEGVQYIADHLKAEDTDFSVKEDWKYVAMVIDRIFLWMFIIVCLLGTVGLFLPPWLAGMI
Sequence of Nicotinic Acetylcholine Receptor α4β2 (nAchRa4/b2) (P17787 26-502 limits assumed): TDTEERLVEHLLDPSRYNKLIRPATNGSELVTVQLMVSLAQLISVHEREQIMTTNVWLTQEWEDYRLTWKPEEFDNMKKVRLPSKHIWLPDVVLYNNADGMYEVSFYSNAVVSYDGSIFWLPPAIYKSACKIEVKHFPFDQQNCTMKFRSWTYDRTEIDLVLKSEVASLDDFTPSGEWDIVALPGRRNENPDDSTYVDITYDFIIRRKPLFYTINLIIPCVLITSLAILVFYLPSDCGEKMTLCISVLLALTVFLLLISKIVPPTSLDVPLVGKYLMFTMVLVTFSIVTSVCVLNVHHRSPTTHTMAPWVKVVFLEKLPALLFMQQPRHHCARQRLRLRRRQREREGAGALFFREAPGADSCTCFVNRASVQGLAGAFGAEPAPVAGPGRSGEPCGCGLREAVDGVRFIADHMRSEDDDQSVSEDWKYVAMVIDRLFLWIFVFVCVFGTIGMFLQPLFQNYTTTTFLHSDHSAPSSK
Experimental: Cell lines were expanded from freezer stocks according to standard procedures. Cells were seeded in a total volume of 20 μL into black-walled, clear-bottom, Poly-D-lysine coated 384-well microplates and incubated at 37° C. for the appropriate time prior to testing.
Assays were performed in 1×Dye Loading Buffer consisting of 1×Dye, and 2.5 mM freshly-prepared Probenecid when applicable.
Test compounds were assayed at 10 concentrations with the highest concentration either 30 or 10 μM and subsequent concentrations using a 0.33 dilution factor.
Prior to testing, cells were loaded with dye then incubated for 30-60 minutes at 37° C. For antagonist determination, cells were pre-incubated with sample. Dihydro-β-erythroidine was used as a positive control. Intermediate dilution of sample stocks was performed to generate 2-5×sample in assay buffer.
After dye loading, cells were moved from the incubator and 10-25 μL 2-5×sample was added to cells in the presence of EC80 agonist when appropriate. Cells were incubated for 30 minutes at room temperature in the dark to equilibrate plate temperature. Vehicle concentration was 1%.
Compound activity was measured on a FLIPRTetra(MDS) and analyzed using CBIS data analysis suite (ChemInnovation, CA). Percentage inhibition was calculated using the following formula: % Inhibition=100%×(1−(mean RLU of test sample−mean RLU of vehicle control)/(mean RLU of EC80 control−mean RLU of vehicle control)).

In the case of `CN[C@H](C)Cc1ccc2ccoc2c1` [Compound R-6-MAPB, (R)-1-(benzofuran-6-yl)-N-methylpropan-2-amine], the EC50 (5-HT2A receptors) is reported as 4.62 µM, the IC50 (MAO-A) is reported as 2.12 µM and the “Hill Coef.” value (5-HT1BR) is reported as 1.14. It also gave an EC50 (5-HT1BR; 5-HT1BR EC50 (μM)) of 1.48 µM, an EC50 (5-HT1BR; 5HT1B Agonist (μM)) of 1.48 µM and an IC50 (5-HT2B) of 0.4 µM. For the same compound, the EC50 [1] was 112 ± 17.5 nM, the IC50 [2] was 623 ± 31.2 nM and the IC50 [3] was 7.41 µM.
